Like-named read-outs stand apart in the source and are kept apart here.
Assays:
[1] = target: T1, human α2B adrenergic receptor (Homo sapiens, UniProt P18089); assay: Competition binding, [3H]rauwolscine, α2B receptor; conditions: for Ki: read-out: Alpha-2 Adrenergic a2b (pK1) (converted)
T1 sequence (P18089 1-450): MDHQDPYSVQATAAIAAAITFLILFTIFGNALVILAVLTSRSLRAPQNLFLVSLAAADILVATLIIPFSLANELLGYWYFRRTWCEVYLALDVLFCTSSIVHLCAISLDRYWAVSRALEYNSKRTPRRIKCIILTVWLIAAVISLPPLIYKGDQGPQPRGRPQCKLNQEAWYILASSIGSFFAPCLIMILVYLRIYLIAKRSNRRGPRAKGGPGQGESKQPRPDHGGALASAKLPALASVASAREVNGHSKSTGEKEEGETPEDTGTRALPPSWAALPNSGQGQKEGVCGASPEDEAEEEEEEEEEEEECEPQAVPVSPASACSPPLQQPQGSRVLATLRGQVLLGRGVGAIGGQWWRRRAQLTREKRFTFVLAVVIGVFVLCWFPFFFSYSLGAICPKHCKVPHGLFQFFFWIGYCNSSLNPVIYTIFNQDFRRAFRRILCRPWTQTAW
Experimental: (§1) To determine the potency of α1 antagonists at the α2 receptors, LM(tk−) cell lines stably transfected with the genes encoding the α2A, α2B, and α2C receptors were used. The cell line expressing the α2A receptor is designated L-α2A, and was deposited on Nov. […] The cell line expressing the α2B receptor is designated L-NGC-α2B, and was deposited on Oct. […] The cell line expressing the α2C receptor is designated L-α2C, and was deposited on Nov. […] Cell lysates were prepared as described above (see Radioligand Binding Assays), and suspended in 25 mM glycylglycine buffer (pH 7.6 at room temperature).

[2] = target: T2, human α2C adrenergic receptor (Homo sapiens, UniProt P18825); assay: Competition binding, [3H]rauwolscine, α2C receptor; conditions: for Ki: read-out: Alpha-2 Adrenergic a2c (pK1) (converted)
T2 sequence (P18825 1-462): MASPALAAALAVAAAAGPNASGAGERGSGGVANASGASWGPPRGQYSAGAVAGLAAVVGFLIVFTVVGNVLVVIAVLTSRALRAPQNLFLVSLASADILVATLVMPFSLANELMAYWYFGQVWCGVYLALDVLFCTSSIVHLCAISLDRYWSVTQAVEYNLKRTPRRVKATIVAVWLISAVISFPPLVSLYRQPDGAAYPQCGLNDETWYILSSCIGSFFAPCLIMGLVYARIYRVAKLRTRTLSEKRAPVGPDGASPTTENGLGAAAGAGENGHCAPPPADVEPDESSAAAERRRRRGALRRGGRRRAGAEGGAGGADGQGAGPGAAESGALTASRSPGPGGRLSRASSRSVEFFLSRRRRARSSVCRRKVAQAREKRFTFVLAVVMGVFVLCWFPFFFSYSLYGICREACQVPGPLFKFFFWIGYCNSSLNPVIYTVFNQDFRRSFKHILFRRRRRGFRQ
Experimental: as §1

[3] = target: T3, human 5HT1E receptor (Homo sapiens, UniProt P28566); assay: [3H]serotonin competition binding, 5HT1E receptor
T3 construct: host or cells: LM(tk-) clonal cell line 5HT1E-7
Experimental: 5HT1Dα, 5HT1Dβ, 5HT1E, 5HT1F Receptors: The cell lysates of LM(tk−) clonal cell line stably transfected with the genes encoding each of these 5HT receptor-subtypes were prepared as described above. The cell line for the 5HT1Dα receptor, designated as Ltk-8-30-84, was deposited on Apr. […] The cell for the 5HT1Dβ receptor, designated as Ltk-11, was deposited on Apr. […] The cell line for the 5HT1E receptor, designated 5 HT1E-7, was deposited on Nov. […] The cell line for the 5HT1F receptor, designated L-5-HT1F, was deposited on Dec. […] These preparations were suspended in 50 mM Tris-HCl buffer (pH 7.4 at 37° C.) containing 10 mM MgCl2, 0.2 mM EDTA, 10 μM pargyline, and 0.1% ascorbate.

[4] = target: T4, human α1A adrenergic receptor (Homo sapiens, UniProt P25100); assay: Radioligand binding, [3H]prazosin, cloned human α1A adrenergic receptor
T4 sequence (P25100 1-572): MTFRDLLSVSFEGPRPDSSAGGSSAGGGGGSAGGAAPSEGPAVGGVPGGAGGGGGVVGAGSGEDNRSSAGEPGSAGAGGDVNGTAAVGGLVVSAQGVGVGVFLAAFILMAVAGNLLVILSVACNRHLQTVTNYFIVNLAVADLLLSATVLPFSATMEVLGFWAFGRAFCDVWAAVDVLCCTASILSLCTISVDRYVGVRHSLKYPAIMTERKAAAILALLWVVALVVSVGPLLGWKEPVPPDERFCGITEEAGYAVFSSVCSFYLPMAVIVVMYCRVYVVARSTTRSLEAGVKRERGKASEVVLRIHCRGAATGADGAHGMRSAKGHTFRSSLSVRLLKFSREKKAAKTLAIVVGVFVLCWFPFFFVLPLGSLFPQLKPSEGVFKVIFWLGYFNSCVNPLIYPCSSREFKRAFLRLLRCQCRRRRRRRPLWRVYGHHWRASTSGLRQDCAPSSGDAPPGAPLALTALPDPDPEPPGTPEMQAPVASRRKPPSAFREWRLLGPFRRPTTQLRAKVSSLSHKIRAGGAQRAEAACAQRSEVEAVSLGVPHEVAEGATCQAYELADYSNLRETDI

[5] = Table 2, cloned human receptor, read-out: Serotonin 5HT1E (pK1)

T3 sequence (P28566 whole entry): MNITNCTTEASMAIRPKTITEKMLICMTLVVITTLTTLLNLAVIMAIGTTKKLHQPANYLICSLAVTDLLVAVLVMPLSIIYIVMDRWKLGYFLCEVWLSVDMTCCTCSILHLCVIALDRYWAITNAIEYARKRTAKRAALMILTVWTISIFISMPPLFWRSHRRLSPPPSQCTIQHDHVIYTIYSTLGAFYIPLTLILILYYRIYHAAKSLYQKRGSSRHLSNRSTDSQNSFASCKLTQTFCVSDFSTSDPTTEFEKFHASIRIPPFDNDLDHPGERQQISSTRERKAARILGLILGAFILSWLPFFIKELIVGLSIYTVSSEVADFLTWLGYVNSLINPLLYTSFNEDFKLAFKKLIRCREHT

| Compound | Serotonin 5HT1E (pK1) ([3]; Table 2, cloned human receptor) | Alpha-2 Adrenergic a2b (pK1) ([1]; Table 2, cloned human receptor) | Alpha-2 Adrenergic a2c (pK1) ([2]; Table 2, cloned human receptor) | Alpha-1 Adrenergic a1A (pK1) ([4]; Table 2, cloned human receptor) | Ki ([1]; Table 2, cloned human receptor) | Ki ([2]; Table 2, cloned human receptor) | further results |
| --- | --- | --- | --- | --- | --- | --- | --- |
| 4-fluoro-4-(8-fluoro-1,3,4,5-tetrahydro-2H-pyrido[4,3-b]indol-2-yl)butyrophenone hydrochloride [Compound A-30360, reference compound] | <5.0 |  |  |  |  |  | Alpha-2 Adrenergic a2b (pK1) [1]: 6.37; Alpha-2 Adrenergic a2c (pK1) [2]: 6.23; Alpha-1 Adrenergic a1A (pK1) [4]: 7.49 |
| COc1ccccc1N1CCN(CCCNc2c(C)c(=O)n(C)c(=O)n2C)CC1 [5-Methyl-Urapidil, 5-methylurapidil, reference compound] |  | 7.38 | 6.88 | 7.79 |  |  |  |
| O=C(CCCN1CCC(NC(=O)c2ccccc2)CC1)c1ccc(Cl)cc1 [Compound 7] | <5.0 | 6.07 | 6.09 | 6.82 |  |  |  |
| COC(=O)C1=C(C)NC(C)=C(C(=O)OCCCN2CCC(c3ccccc3)(c3ccccc3)CC2)C1c1ccc([N+](=O)[O-])cc1.Cl (stereo not drawn) [Compound 8, 2,6-Dimethyl-4-(4-nitrophenyl)-1,4-dihydropyridine-3,5-dicarboxylic acid [3-(4,4-diphenylpiperidin-1-yl)propyl] ester methyl ester hydrochloride] |  | 6.12 | 5.77 | 6.52 |  |  | Ki [3]: > 10 µM |
| O=C(CCCN1CCC(NC(=O)c2ccccc2)CC1)c1ccccc1 [Compound 9] | <5.0 | 5.69 | 5.90 | 6.12 |  |  |  |
| COc1ccc(CCNCC2CCc3ccccc3C2)cc1 (stereo not drawn) [Compound 11, 2-[(4-Methoxyphenethyl)aminomethyl]-1,2,3,4-tetrahydronaphthalene] |  |  |  | 6.81 | 126 nM | 120 nM | Ki [3]: > 10 µM; Ki [4]: 155 nM |
| O=C(NC1CCN(CCc2c[nH]c3ccccc23)CC1)c1ccccc1 [Indoramin, reference compound] |  |  |  |  | 1910 nM | 6030 nM | Ki [3, 5]: > 10 µM |
| C=Cc1sc2ccc(Cl)c3c2c1CN(C)CC3 [SKF-104856, 7-Chloro-2-ethenyl-3,4,5,6-tetrahydro-4-methylthieno[4,3,2-ef][3]benzazepine, reference compound] |  |  |  |  | 3.24 nM | 25.1 nM | Ki [3, 5]: > 1 µM |
